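Test compounds were applied to cells in 96-well plates for 48 hours at 5 doses. GI50 = concentration required for 50% inhibition of growth. TGI: total growth inhibition.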
Columns and labels:
Assay in all cases: growth of human tumour cells (NCI), 48 h
COLO 205 colon = tested on: COLO 205 colon
EKVX NSCLC = tested on: EKVX NSCLC
HL-60(TB) leukemia = tested on: HL-60(TB) leukemia
HT29 colon = tested on: HT29 colon
M14 melanoma = tested on: M14 melanoma
NCI-H460 lung = tested on: NCI-H460 lung
OVCAR-4 ovarian = tested on: OVCAR-4 ovarian
RXF 393 renal = tested on: RXF 393 renal
SR leukemia = tested on: SR leukemia
UACC-62 melanoma = tested on: UACC-62 melanoma

SMILES	GI50 (COLO 205 colon) [µM]	TGI (COLO 205 colon) [µM]	GI50 (EKVX NSCLC) [µM]	TGI (EKVX NSCLC) [µM]	GI50 (HL-60(TB) leukemia) [µM]	TGI (HL-60(TB) leukemia) [µM]	GI50 (HT29 colon) [µM]	TGI (HT29 colon) [µM]	GI50 (M14 melanoma) [µM]	TGI (M14 melanoma) [µM]	GI50 (NCI-H460 lung) [µM]	TGI (NCI-H460 lung) [µM]	GI50 (OVCAR-4 ovarian) [µM]	TGI (OVCAR-4 ovarian) [µM]	GI50 (RXF 393 renal) [µM]	TGI (RXF 393 renal) [µM]	GI50 (SR leukemia) [µM]	TGI (SR leukemia) [µM]	GI50 (UACC-62 melanoma) [µM]	TGI (UACC-62 melanoma) [µM]
COc1ccc2c(c1)C(=O)c1c-2n(CCCN2CCOCC2)c(=O)c2ccccc12	2.81	> 41	4.52	> 89.2	4.59	> 100	2.19	> 45	2.85	7.87	0.561	3.58	4.57	> 100	3.22	> 21.6	0.579	> 32.6	1.76	5.87
CCOC(=O)/C(C#N)=C1\N[C@H](C(=O)OCC)CO1	–	> 100	–	> 100	–	> 100	–	> 100	–	> 100	–	> 100	–	> 100	–	> 100	–	> 100	–	> 100
O=c1cccccc1NCCCCCCCCCNc1cccccc1=O	–	26.2	–	32.7	–	24.5	–	65	–	25.7	–	27.7	–	> 100	–	79.3	–	45.7	–	28.7
O=c1[nH]cc(OCC(F)(F)F)c(=O)[nH]1	–	> 100	–	> 100	–	> 100	–	> 100	–	> 100	–	> 100	–	> 100	–	> 100	–	> 100	–	> 100
CCSc1nc(COC(=O)NC)c(COC(=O)NC)n1C	–	> 85.1	–	> 100	–	> 100	–	> 100	–	> 83	–	> 100	–	> 84.7	–	78.5	–	> 100	–	51.2
CCOC(=O)N1C2C=C(C)C(C3C(C)C(=O)N31)N(C(=O)c1ccccc1)O2 (stereo not given)	–	> 100	–	> 100	–	> 100	–	> 100	–	> 100	–	> 100	–	> 100	–	> 100	–	> 100	–	> 100
Clc1ccc(CN2COc3c(cc(Cl)c4cccnc34)C2)cc1	–	31.7	–	14.2	–	2.11	–	24.7	–	3.82	–	9.19	–	8.26	–	5.86	–	6.88	–	4.11
CCc1c[nH]c2ncnc(N3CC[C@@](N)(CNC(=O)c4ccc(F)cc4F)C3)c12	29.8	> 100	35	> 100	38.7	> 100	62	> 100	54.9	> 100	35	> 100	77.2	> 100	7.16	35.9	16.4	44.1	33	> 100
CC(C)(Br)C(=O)/C=C/c1ccccc1	–	22	–	23	–	29	–	18.3	–	4.88	–	63.4	–	5.58	–	3.12	–	> 25.6	–	19
Oc1cc(Cl)ccc1Oc1ccc(Cl)cc1Cl	3.88	13.3	3.04	11.9	3.31	8.31	3.27	10.2	2.86	7.24	2.85	8.3	2.79	9.41	2.06	5.09	3.46	10.9	2.16	5
Cn1cc(-c2ccc3c(c2)CCN3C(=O)Cc2cccc(C(F)(F)F)c2)c2c(N)ncnc21	4.23	17.9	8.7	29	5.39	33	3.61	16.3	1.7	16.2	3.85	19.7	2.41	> 100	3.46	19.5	2.38	23.4	2.72	16.9
O=C(O)c1c[nH]cc1C(=O)O	–	> 100	–	> 100	–	> 100	–	> 100	–	> 100	–	> 100	–	> 100	–	> 100	–	> 100	–	> 100

Reference: PubChem BioAssay (NCI)
